Results taken from patent publication US4545993A, “1,2-Benzopyran-6-yl acetic acid compound and pharmaceutical compositions containing said compounds” (priority 1981, dated 1985).

How the values were obtained:
[1] = Acute toxicity, oral, number of deaths up to 72 hours; conditions: mouse, in vivo
Description: Groups of 10 male dd mice weighing some 18 g, were orally administered 800 mg/Kg of each of the examined drugs and the number of deaths up to 72 hours later was recorded.

[2] = tested on: pseudopain reactions (dd mice); test: Analgesic effects by a modified Haffner method; format: in vivo; conditions: oral, with 2 mg/Kg morphine hydrochloride s.c.
Description: Groups of 10 dd mice were orally administered the examined drugs and 30 minutes later 2 mg/Kg of morphine hydrochloride, the threshhold dose, was subcutaneously injected. At 15, 30, 45 and 60 minute intervals thereafter, the root of the mouse's tail was squeezed with a Kocher's forcepts.

[3] = tested on: stretching after acetic acid (male dd mice); test: Analgesic effects by acetic acid writhing test; format: in vivo; conditions: oral, 0.6% acetic acid i.p.
Description: Thirty minutes after the examined drug was orally given, 0.1 ml/10 g of 0.6% acetic acid was intraperitoneally administered to groups of 10 male dd mice weighing some 18 g. The number of stretching was calculated during an observation period of 15 to 20 minutes after acetic acid treatment. The average inhibition rate of stretching among 8 animals was regarded as the inhibition rate of the drug, excluding 2 animals showing maximum and minimum numbers of stretching.

[4] = 800 mg/Kg, oral, male dd mice, up to 72 hours

Structure (SMILES)	mortality at 72 h [1, 4] [%]	Analgesic effects (modified Haffner method) ([2]; 50 mg/Kg) [%]	Analgesic effects (modified Haffner method) ([2]; 100 mg/Kg) [%]	Analgesic effects (acetic acid writhing test; average inhibition rate of stretching) ([3]; 50 mg/Kg) [%]	Analgesic effects (acetic acid writhing test; average inhibition rate of stretching) ([3]; 100 mg/Kg) [%]	mortality at 72 h ([1]; po, 800 mg/kg) [%]
CC(C(=O)O)c1ccc2c(c1)C=CC(C)(C)O2 (centres unmarked) [Compound 2, 2-(2,2-Dimethyl-1,2-benzopyran-6-yl)propionic acid]	0	25	50	44	76	
CC(C(=O)O)c1cc(Cl)c2c(c1)C=CC(C)(C)O2 (centres unmarked) [Compound 3, 2-(2,2-Dimethyl-8-chloro-1,2-benzopyran-6-yl)propionic acid]	0	20	65			
CC(C(=O)O)c1cc(Cl)c2c(c1)C=CCO2 (centres unmarked) [Compound 4, 2-(8-Chloro-1,2-benzopyran-6-yl)propionic acid]	30	30	55	36	61	
CC(C(=O)O)c1cc(Cl)c2c(c1)CCC(C)(C)O2 (centres unmarked) [Compound 6, 2-(2,2-dimethyl-8-chlorochroman-6-yl)propionic acid]	30	30	60	27	68	
CC(C(=O)O)c1cc(F)c2c(c1)C=CC(C)(C)O2 (centres unmarked) [Compound 1, 2-(2,2-dimethyl-8-fluoro-1,2-benzopyran-6-yl)propionic acid]	0	40	70	59	76	
CCCCC1C(=O)N(c2ccccc2)N(c2ccccc2)C1=O [Phenylbutazone, reference compound]						60
O=C(O)Cc1cc(Cl)c2c(c1)C=CCO2 [Compound 5, (8-Chloro-1,2-benzopyran-6-yl)acetic acid]		35	70			
CC(C(=O)O)c1cc(Cl)c2c(c1)CCCO2 (centres unmarked) [Compound 7, 2-(8-Chlorochroman-6-yl)propionic acid]	0					
Cc1c(N(C)C)c(=O)n(-c2ccccc2)n1C [Aminopyrine, reference compound]	80	20	55	18	57	
